Results published in patent US20040058868A1, “Methods for identification of compounds modulating insulin resistance” (priority 2002, published 2004).

Legend:
[1] = tested on: IRS-1 acetylation in MCF-7 cells; assay: IRS-1 acetylation: immunoprecipitation with anti-IRS-1, western blot with anti-acetyl lysine antibodies; format: cell-based, human; conditions: MCF-7 cells treated with TSA
Procedure: FIG. 2 illustrates immunoprecipitation of IRS-1 and detection of anti-acetyl-lysine. MCF-7 cells were treated as follows: lane 1: IGF-1 for 10 min; lane 2: IGF-1 for 30 min; lane 3: IGF-1 for 1 h; lane 4: IGF-1 for 6 h; lane 5: IGF-1 for 24 h; lane 6: PMA for 6 h; lane 7: PMA for 6 h and IGF-1 for 10 min; lane 8: PMA for 24 h; lane 9: PMA and TSA for 6 h; lane 10: TSA for 6 h; lane 11: control (vehicle).
(§1) To further validate the IRS-1/HDAC2 interaction, several mammalian cell lines were used. MCF-7 is a human breast adenocarcinoma cell line, HepG2 is a hepatocellular carcinoma cell line and L6 is a rat skeletal muscle cell line. The MCF-7 cell line was chosen since these cells have a high endogenous production of IRS-1. Cells were grown to confluency, treated with IGF-1 or PMA ([…]) for different lengths of time and then harvested in hypotonic cell lysis buffer (comprising 20 mM Hepes, pH 7.6, 20% glycerol, 10 mM NaCl, 1.5 mM MgCl2, 0.2 mM EDTA, 0.1% NP40, 25 mM NaF, 25 mM β-glycerophosphate, 1 mM DTT, 1 mM Na orthovanadate with protease inhibitors). All precleared fractions were matched for protein content and then immunoprecipitated with anti-IRS-1 antibody. […] A similar. experiment was performed the other way around, i.e. HDAC2 was immunoprecipitated from the cell extracts and the subsequent membrane was probed with anti-IRS-1 antibodies. […]

[2] = tested on: IRS-1 tyrosine phosphorylation in MCF-7 cells; assay: IRS-1 tyrosine phosphorylation: immunoprecipitation with anti-IRS-1, western blot with anti-phospho-tyrosine antibodies; format: cell-based, human; conditions: insulin 10 min, FIG. 3
Procedure: FIG. 3 illustrates immunoprecipitation of IRS-1 and detection of antiphosphotyrosine. MCF-7 cells were treated as follows: lane 1: insulin 10 min; lane 2: PMA & TSA for 4 h and insulin 10 min; lane 3: PMA for 4 h and insulin 10 min; lane 4: PMA & TSA for 4 h; lane 5: PMA for 4 h; lane 6: control (vehicle);
as §1

[3] = clinical trials in humans, reference [26]; cited from earlier work
IRS-1/HDAC2 interaction [4] = assay: Coimmunoprecipitation of IRS-1 and HDAC2 in L6 cells; format: cell-based, rat; conditions: stimulation with insulin
Procedure: To further validate the IRS-1/HDAC2 interaction, several mammalian cell lines were used. MCF-7 is a human breast adenocarcinoma cell line, HepG2 is a hepatocellular carcinoma cell line and L6 is a rat skeletal muscle cell line. The MCF-7 cell line was chosen since these cells have a high endogenous production of IRS-1. Cells were grown to confluency, […] cell lysis buffer (comprising 20 mM Hepes, pH 7.6, 20% glycerol, 10 mM NaCl, 1.5 mM MgCl2, 0.2 mM EDTA, 0.1% NP40, 25 mM NaF, 25 mM β-glycerophosphate, 1 mM DTT, 1 mM Na orthovanadate with protease inhibitors). All precleared fractions were matched for protein content and then immunoprecipitated with anti-IRS-1 antibody. […] A similar. experiment was performed the other way around, i.e. HDAC2 was immunoprecipitated from the cell extracts and the subsequent membrane was probed with anti-IRS-1 antibodies.

IRS-1/HDAC2 interaction [5] = assay: Coimmunoprecipitation of IRS-1 and HDAC2 in HepG2 cells; format: cell-based; conditions: stimulation with insulin
Procedure: To further validate the IRS-1/HDAC2 interaction, several mammalian cell lines were used. MCF-7 is a human breast adenocarcinoma cell line, HepG2 is a hepatocellular carcinoma cell line and L6 is a rat skeletal muscle cell line. The MCF-7 cell line was chosen since these cells have a high endogenous production of IRS-1. […] All precleared fractions were matched for protein content and then immunoprecipitated with anti-IRS-1 antibody. […] A similar. experiment was performed the other way around, i.e. HDAC2 was immunoprecipitated from the cell extracts and the subsequent membrane was probed with anti-IRS-1 antibodies.

IRS-1/HDAC2 interaction [6] = assay: Coimmunoprecipitation of IRS-1 and HDAC2 in MCF-7 cells; format: cell-based, human; conditions: MCF-7 cells treated with PMA; IP with anti-IRS-1 or anti-HDAC2
Procedure: To further validate the IRS-1/HDAC2 interaction, several mammalian cell lines were used. MCF-7 is a human breast adenocarcinoma cell line, HepG2 is a hepatocellular carcinoma cell line and L6 is a rat skeletal muscle cell line. The MCF-7 cell line was chosen since these cells have a high endogenous production of IRS-1. Cells were grown to confluency, treated with IGF-1 or PMA ([…]) for different lengths of time and then harvested in hypotonic cell lysis buffer (comprising 20 mM Hepes, pH 7.6, 20% glycerol, 10 mM NaCl, 1.5 mM MgCl2, 0.2 mM EDTA, 0.1% NP40, 25 mM NaF, 25 mM β-glycerophosphate, 1 mM DTT, 1 mM Na orthovanadate with protease inhibitors). All precleared fractions were matched for protein content and then immunoprecipitated with anti-IRS-1 antibody. […] A similar. experiment was performed the other way around, i.e. HDAC2 was immunoprecipitated from the cell extracts and the subsequent membrane was probed with anti-IRS-1 antibodies.

For `CC(/C=C/C(=O)NO)=C\[C@@H](C)C(=O)c1ccc(N(C)C)cc1` [TSA, Trichostatin A], the “acetylation of IRS-1” value ([1]; FIG. 2) was “significantly pronounced”, the “acetylation of IRS-1” value ([1]; FIG. 2, listed as Trichostatin A) was “enhanced” and the “reversal of PMA-induced insulin resistance (tyrosine phosphorylation of IRS-1)” value ([2]; PMA and TSA simultaneously 4 h) was “insulin resistance can to a large extent be remedied”.
In the case of `O=C(CCCCCCC(=O)Nc1ccccc1)NO` [SAHA, suberoylanilide hydroxamic acid], the tolerability / toxicity [3] is listed as “well-tolerated, are not toxic”.
In the case of “insulin: insulin used to stimulate cells”, the “interaction between IRS-1 and HDAC2 (coimmunoprecipitation)” value (“interaction between IRS-1 and HDAC2” for short) (IRS-1/HDAC2 interaction [4]) is reported as “not influenced” and the “interaction between IRS-1 and HDAC2” value (IRS-1/HDAC2 interaction [5]) is reported as “not influenced”.
For `CCCCCCCCCCCCCC(=O)O[C@@H]1[C@@H](C)[C@@]2(O)[C@@H](C=C(CO)C[C@]3(O)C(=O)C(C)=C[C@@H]23)[C@@H]2C(C)(C)[C@]12OC(C)=O` [PMA, phorbol myristic acid], the “interaction between IRS-1 and HDAC2” value (IRS-1/HDAC2 interaction [6]) was “the interaction is PMA-driven” and the “insulin-stimulated tyrosine phosphorylation of IRS-1 (insulin resistance)” value ([2]; PMA 4 h) was “makes the cells insulin resistant”.
